Publication PMC12914960, “Repurposing a detrimental antibody epitope as targeted therapeutics for sepsis and rheumatoid arthritis” (Military Medical Research, 2026)
Where “and” joins values, the source holds several entries; their conditions need not be identical. Equal entries are not always repeated. Where a SMILES comes first, the peptide text is derived from it.

What was measured:
Recombinant human HMGB1 = molecular target: T1, Recombinant human HMGB1 (Homo sapiens, UniProt P09429); assay: SPR binding to immobilized HMGB1 (OpenSPR); details: 1:1 model
T1 construct: made in house; host or cells: E. coli BL21 (DE3) pLysS (given for the rat HMGB1 preparation)
T1 sequence (P09429 whole entry, looked up): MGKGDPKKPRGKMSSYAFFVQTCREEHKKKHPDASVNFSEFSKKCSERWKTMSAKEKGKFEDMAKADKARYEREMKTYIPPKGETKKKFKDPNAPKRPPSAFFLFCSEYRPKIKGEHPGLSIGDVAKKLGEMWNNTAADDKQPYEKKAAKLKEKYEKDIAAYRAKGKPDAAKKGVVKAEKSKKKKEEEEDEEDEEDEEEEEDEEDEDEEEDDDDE
Experimental: Binding kinetics between HMGB1 and P2-1 were measured via Nicoya Life Science gold nanoparticle-based OpenSPR technology (Kitchener, ON, Canada) as previously described. Recombinant human HMGB1 was immobilized onto a carboxyl sensor chip, and the P2-1 peptide was flowed over the immobilized HMGB1 at various concentrations in HEPES-buffered saline with poloxamer (HBS-P buffer, GE Healthcare, Chicago, IL, USA). The response units were recorded over time, and binding affinity was estimated as the equilibrium dissociation constant KD using Trace Drawer Kinetic Data Analysis v.1.6.1 (Nicoya Life Science). Given the 1:1 stoichiometry of the HMGB1-P2-1 interaction predicted by ClusPro protein-protein docking (Additional file 1: Fig. S2), we applied a 1:1 interaction algorithm to determine the association rate constant (ka), dissociation rate constant (kd), and equilibrium dissociation constant (KD) from three independent experiments (n = 3 technical replicates). […]
interaction between high mobility group box 1 (HMGB1) and P2- 1. SPR plots showing the interaction between immobilized HMGB1 and different concentrations of the P2- 1 analyte. Experimental binding responses (blue, purple, and yellow traces) are shown with their corresponding global fits (black curves) via a 1:1 interaction model. The associated table summarizes the globally fitted kinetic parameters, including the maximum b inding capacity (Bmax), association rat e constant (ka), dissociation rat e con stant (kd), and other goodness-of-fit metrics (Chi2). The relatively low Chi2 value indicated a good fit bet ween
(1 picture or pasted object on this page, not shown here)

[1] = tested on: Differentiated human macrophages; assay: HMGB1-induced macrophage death, LDH release; format: cell-based; design: key: % of maximal LDH release (2% Triton X-100); details: 16 h, percentage of maximal release (2% Triton X-100) per method, individual replicates
Experimental: Human macrophage differentiation and treatment
Human PBMCs were differentiated into macrophages by culturing in human macrophage colony-stimulating factor (M-CSF, 20 ng/ml) for 5 – 6 d. Differentiated macrophages were maintained in Dulbecco’s modified Eagle’s medium supplemented with 1% penicillin/streptomycin and 10% human serum. Upon reaching 70 – 80% conflu ence, adh erent cells were wash ed and switched to Opti-MEM I before stimulation with recombinant HMGB1 (0.5 µg/ml) with or without P2- 1 (5.0 or 10 µg/ml) for 16 […]
Cell viability was assessed via the tryp an blue excl usion and lactat e dehyd ro genase (LDH) release method as previously described . For trypan blue exclusion, random phase-contr ast images were captur ed , and the percentage of nonviable, trypan blue-stained cells was calculated. LDH release in the culture medium was quantified with an LDH Ass ay Kit (Cat. #L7572, Pointe Scientific Inc., Canton, MI, USA) according to the manufacturer ’s instructions. Optical density was measured at 340 nm, and LDH content was expressed as a per centag e of maximal release in the presence of 2% Triton X-100. The experiments were performed 5 – 7 times ( n= 5 –7 biological replicates). […]

human PBMCs = assay: HMGB1-induced cytokine/chemokine secretion by PBMCs, cytokine antibody arrays; format: cell-based; details: P2-1 5.0 or 10.0 µg/ml, 16 h
Experimental: Human blood was purchased from the New York Blood Center (Long Island City, NY, USA), and PBMCs were isolated via density gradient centrifugation through Ficoll (Ficoll-Paque PLUS) as previously described. PBMCs were cultured in RPMI-1640 supplemented with 10% human serum, 2 mmol/L L-glutamine, 100 U/ml penicillin, and 100 µg/ml streptomycin (all from Invitrogen, Carlsbad, CA, USA). For experiments, PBMCs were stimulated with recombinant HMGB1 (0.5 or 2.0 µg/ml) for 16 h, either alone or in combination with P2-1 at 5.0 or 10.0 µg/ml. Cell-free supernatants were collected for analysis of cytokine/chemokine levels via cytokine antibody arrays, or pCTS-L levels via Western blotting analysis as previously described.
The levels of cytokines and chemokines in mouse serum and joint tissue lysates, or human PBMC culture supernatants, were determined via murine or human cytokine antibody arrays (e.g., Cat. #AAM-CYM-3–8 or Cat. #AAH-CYT-3–8, RayBiotech Inc., Norcross, GA, USA) as previously described. For the sepsis model, blood samples were collected from the mice (n = 4) at 24 h post-CLP. […] Arrays were performed according to the manufacturer’s protocol, followed by chemiluminescent detection and densitometric quantification as previously described. […]

[2] = tested on: CAIA-induced joint cytokines and chemokines; assay: Cytokine antibody arrays of joint tissue of CAIA mice; format: in vivo, mouse; design: VCAM1 / sTNFRI / sTNFRII / MIP-1gamma / MIP2 / P-selectin: unit not given here
Experimental: The levels of cytokines and chemokines in mouse serum and joint tissue lysates, or human PBMC culture supernatants, were determined via murine or human cytokine antibody arrays (e.g., Cat. #AAM-CYM-3–8 or Cat. #AAH-CYT-3–8, RayBiotech Inc., Norcross, GA, USA) as previously described. For the sepsis model, blood samples were collected from the mice (n = 4) at 24 h post-CLP. For the CAIA model, soft tissues from the hindpaw and ankle joints were carefully harvested from normal (n = 2) and CAIA (n = 4) mice using a previously established protocol. Briefly, 0.5 g of fresh soft tissue was cut into 3 mm pieces and mixed with 400 µl of a hypertonic solution (500 ml of PBS with 4.5 g of NaCl and 2 × protease inhibitor cocktail) in a 10 ml syringe. Mechanical extrusion, involving 30 rapid back-and-forth movements of the plunger, was then performed. The expelled extracellular fluid was collected, immediately aliquoted, and stored at −20 °C until analysis. Cell-conditioned medium was collected from PBMC cultures after 16 h of stimulation. Arrays were performed according to the manufacturer’s protocol, followed by chemiluminescent detection and densitometric quantification as previously described.
Fig. S5 Representative cytokine antibody arrays depicting the effect of P2- 1 on collagen antibody- induced
arthritis (CAIA)- induced joint inflammation. Representative images from cyt okine antibody arrays of j oint
tissue lysates from 4 vehicle-treated CAIA mice and 4 P2-1- treated CAIA mice (harvested on Day 10). […]

[3] = CAIA + P2-1, joint tissue Day 10, individual values, P = 0.00077753

With `CCCC[C@H](NC(=O)[C@H](Cc1c[nH]cn1)NC(=O)[C@@H](NC(=O)[C@H](CCCCN)NC(=O)[C@@H](N)[C@@H](C)O)C(C)C)C(=O)N[C@@H](CCCCN)C(=O)N[C@@H](CO)C(=O)N[C@@H](Cc1ccccc1)C(=O)N[C@@H](CC(C)C)C(=O)N[C@@H](C)C(=O)N[C@@H](Cc1ccccc1)C(=O)N[C@@H](CCC(N)=O)C(=O)N[C@H](C(=O)N[C@@H](CCCCN)C(=O)N[C@H](C(=O)O)[C@@H](C)O)[C@@H](C)O` [P2-1] (HELM PEPTIDE1{T.K.V.H.[Nle].K.S.F.L.A.F.Q.T.K.T}$$$$V2.0; N-terminus and C-terminus assumed) as the compound, how does the KD (Recombinant human HMGB1; Exp 1) read?
Its KD is 14.8 nM.

And the KD (Recombinant human HMGB1; Exp 2)?
The KD was 33.5 nM.

What about the KD (Recombinant human HMGB1; Exp 3) of the same compound?
Its KD is 2.3 nM.

And the LDH release ([1]; HMGB1 0.5 µg/ml + P2-1 5.0 μg/ml)?
The LDH release was 2.7008 and 6.752 and 2.4476 and 4.642 and 0.844 and 5.6548.

And the LDH release ([1]; HMGB1 0.5 µg/ml + P2-1 10.0 μg/ml)?
Its LDH release is 1.0128 and 2.532 and 6.752 and 3.376 and 5.4016 and 2.6164 and 1.1816.

And the “HMGB1-induced cytokine/chemokine secretion, in words” value (human PBMCs)?
The value was “did not broadly inhibit the secretion of these HMGB1-induced cytokines and chemokines”.

What about the VCAM1 ([2]; CAIA + P2-1, joint tissue Day 10, individual values, P = 0.0007706) of the same compound?
Its VCAM1 is 4 and 4.5 and 8.2 and 10.3 and 3.3 and 1.2 and 0.7.

What about the sTNFRI [2, 3] of the same compound?
Its sTNFRI is 23.4 and 20.4 and 17.4 and 17 and 24.9 and 22.3 and 40 and 36.8.

And the sTNFRII [2, 3]?
The sTNFRII was 12.4 and 11.7 and 6.5 and 5.7 and 3.2 and 2.8 and 5.8 and 5.9.

And the MIP-1gamma ([2]; CAIA + P2-1, joint tissue Day 10, individual values, P = 0.00163)?
Its MIP-1gamma is 39.6 and 44.2 and 29 and 33.7 and 41.8 and 44.8 and 49.9 and 50.4.

What about the MIP2 ([2]; CAIA + P2-1, joint tissue Day 10, individual values, P = 0.02067) of the same compound?
Its MIP2 is 2.5 and 2.7 and 4.3 and 4.8 and 5.9 and 7.2 and 5.1 and 5.2.

And the P-selectin ([2]; CAIA + P2-1, joint tissue Day 10, individual values, P = 0.04584)?
The P-selectin was 3.6 and 4 and 3.4 and 5.3 and 5.6 and 7.5 and 8.

And the “joint inflammation, in words” value ([2]; P2-1 prophylactic)?
Its value is “significantly reducing joint levels of sTNFRI and sTNFRII, the chemokine MIP-1γ/CCL9, and VCAM-1”.

And the “joint tissue inflammation, in words” value ([2]; P2-1 therapeutic, sTNFRI, sTNFRII, MIP-1γ/CCL9, VCAM-1, Day 10)?
The value was “significantly reduced CAIA-induced joint tissue inflammation”.
